Measured values from patent US20070020193A1, “Dronabinol compositions and methods for using same” (priority 2005, published 2007).
“And” between values parts separate entries of the source, which are not always exact repeats. Identical values can stand only once. “Also recorded” adds a separate entry of the source.

How the values were obtained:
[1] = system: healthy subjects; assay: Example 2: pulmonary function tests; type: in vivo, human
Procedure: (§1) Adverse events were recorded based on original descriptions from subject responses to queries. Complete medical histories and physical examinations were conducted. Vital signs were monitored, ECGs were recorded along with pulmonary function tests and laboratory examinations.
(§2) Listings of values for each subject were presented with abnormal or out of range values for vital signs, laboratory assays, ECGs, pulmonary function tests, and physical examinations. Descriptive statistics (n, mean, standard deviation (SD), minimum, median, maximum) for all clinical laboratory safety parameters, ECGs, pulmonary function tests, and vital signs were provided. ECGs and physical examinations were to be summarized in shift tables to show changes from baseline between normal and abnormal findings.

[2] = system: healthy subjects; design: species or system human; details: in vivo
[3] = system: healthy subjects; assay: Example 2: conjunctiva congestion rating; type: in vivo, human
Excerpt: Conjunctiva Congestion was rated by a trained observer on a scale of 0-3 based on the blood vessels present as follows:
0—None (The white of the eye was not affected)
3—Considerable (The compete white of the eye is red caused by a pattern of bigger vessels. This is associated with complaints.)
(§3) Changes from baseline in conjunctiva congestion and heart rate were compared for all time-points measured, and summarized using descriptive statistics. Subjective ratings were individually tabulated and sorted by treatment group, subject number, and time, and summarized using descriptive statistics. Separate tables were provided to summarize differences between males and females if applicable. Pharmacodynamic assessments were compared with delta-9 THC and 11-OH-THC blood concentrations and summarized using descriptive statistics.

[4] = system: healthy subjects; assay: Example 2: heart rate (telemetry / vital signs); type: in vivo, human; details: for placebo-corrected mean heart rate: 1.2 mg; for Mean increase of heart rate above baseline: last day of dosing
Excerpt: For Examples 1 and 2: Heart rate was obtained from the blood pressure recordings or using telemetry.
Absolute values of heart rate and conjunctive congestion scores were used to calculate changes from baseline.
as §3

[5] = oral administration, first-pass metabolism; cited from earlier work
[6] = system: healthy subjects; assay: Example 2: 12-lead ECG and telemetric cardiac monitoring; type: in vivo, human; details: for heart rate, mean value (ECG) / heart rate, mean increase above baseline / heart rate, mean increase above pre-dose value on Day 1: Day 1, 20 minutes after dosing; for time for heart rate to return to baseline after dosing: Day 1
Procedure: as §1, §2

[7] = system: healthy subjects; design: species or system human; details: in vivo; remark: listed apart in the source
[8] = system: healthy subjects; assay: Example 2: safety, adverse events; type: in vivo, human; details: for events reported among subjects treated with active drug: all six subjects; for events considered probably or possibly related to study drug: all six subjects on active drug
Procedure: as §1
Treatment-emergent adverse events (TEAEs), defined as any event that begins or worsens after treatment with study medication, were summarized by MedDRA system organ class (SOC) for each treatment group. The number and percentage of subjects with TEAEs was tabulated for each treatment and with respect to maximum severity and relationship to study medication.

[9] = after single dosing, both dose levels

Structure (SMILES): CCCCCc1cc(O)c2c(c1)OC(C)(C)[C@@H]1CCC(C)=C[C@@H]21 [delta-9-THC, delta-9-tetrahydrocannabinol]
- FEV1, lowest result during the study ([1]; one subject with below-normal pre-dose FEV1, Day 11, after six days of dosing with 1.2 mg): 63%
- FEV1 at the follow-up visit ([1]; same single subject, 1.2 mg): 58 % of predicted
- Choice Reaction Time against placebo [2]: significant decrement; also recorded: significant benefit
- Delayed Word Recall Words Correctly Recalled, primary analysis [2]: no significant effect of dose
- Delayed Word Recognition Sensitivity Index, primary analysis [2]: no significant effect of dose
- Delayed Word Recognition Speed against placebo [2]: benefits
- Digit Vigilance Speed, primary analysis [2]: no significant effect of dose
- Digit Vigilance Targets Detected, baseline score [2]: 95.6% and 96.7% and 97.4% and 98.5%
- Immediate Word Recall Words Correctly Recalled, primary analysis [2]: no significant effect of dose
- Numeric Working Memory Sensitivity Index, primary analysis [2]: no significant effect of dose
- Numeric Working Memory Speed, primary analysis [2]: no significant effect of dose
- Picture Recognition Sensitivity Index, primary analysis [2]: no significant effect of dose
- Picture Recognition Speed, primary analysis [2]: no dose*time interaction
- Self-rated Alertness, comparisons against placebo [2]: no decrements
- Self-rated Calmness, primary analysis [2]: no significant effect of dose
- Self-rated Contentment, comparisons [2]: no support for differences between the doses on either day
- Simple Reaction Time, comparisons [2]: did not show any significant differences
- Spatial Working Memory Sensitivity Index against placebo [2]: significant decrement
- Spatial Working Memory Sensitivity Index, primary analysis [2]: significant main effect of dose
- Spatial Working Memory Speed, primary analysis [2]: no significant effect of dose
- Tracking Average Distance from Target, primary analysis [2]: no significant effect of dose
- cognitive function effects (summary) [2]: Minimal cognitive function effects
- subjects with slight conjunctiva congestion ([3]; 1.2 mg, Day 12, 10 minutes after dosing): only one subject
- time to resolution of conjunctiva congestion post-dose ([3]; 1.2 mg, Day 12, one subject): ≤ 4 h
- conjunctiva congestion, rest of the study ([3]; Groups I and II (1.2 mg and 3.6 mg)): No other observation of conjunctiva congestion
- placebo-corrected mean heart rate ([4]; Day 1): limited and short-lasting increase
- placebo-corrected mean heart rate ([4]; Day 12): no increase
- duration of placebo-corrected heart rate increase post-dose ([4]; 3.6 mg, Day 1): at least 4 hours
- placebo-corrected mean heart rate, maximum increase ([4]; 3.6 mg, after 19 days of dosing, by 10 minutes post-dose): approximately 10 bpm
- Mean increase of heart rate above baseline ([4]; Group I (1.2 mg), at 0.5 hours after dosing): ≤ 12 bpm
- Mean increase of heart rate above baseline ([4]; Group II (3.6 mg), at 5 minutes after dosing): ≤ 18 bpm
- heart rate (summary) ([4]; after single dose inhaled administration): increased in a dose-dependent fashion
- duration of effect on heart rate [4, 9]: 2 to 4 h
- time of maximum effect on heart rate [4, 9]: 2 to 5 min
- part of an orally administered dose that reaches systemic circulation [5]: 10-20%
- heart rate, mean value (ECG) ([6]; Group I (1.2 mg)): 67 bpm
- time for heart rate to return to baseline after dosing ([6]; Group I): ≤ 40 min
- heart rate, mean increase above baseline ([6]; Group I): 4 bpm
- heart rate, mean increase above pre-dose value on Day 1 ([6]; Group I): 13 bpm
- heart rate, mean value (ECG) ([6]; Group II (3.6 mg)): 81 bpm
- time for heart rate to return to baseline after dosing ([6]; Group II): ≤ 240 min
- heart rate, mean increase above baseline ([6]; Group II): 14 bpm
- heart rate, mean increase above pre-dose value on Day 1 ([6]; Group II): 21 bpm
- time of return of QTc towards baseline after dosing ([6]; Group II, first dose): ≤ 1 h
- Individual QTc values ([6]; each assessment time point): less than 450 msec
- QTc individual values ([6]; each assessment time point): < 422 ms
- QTc mean values ([6]; each assessment time point): < 395 ms
- QTc-intervals using Fridericia's correction ([6]; in vivo): no apparent effect
- telemetric cardiac monitoring ([6]; in vivo): no clinically significant abnormalities
- ECG parameters ([6]; single and multiple inhalational dosing): no clinically significant abnormalities or trends
- Choice reaction time [7]: Significant decrements
- Digit Vigilance [7]: slight decrement; also recorded: more marked decrements; also recorded: marked decrement
- Digit Vigilance, primary analysis [7]: failed to show significant dose-time interaction
- Immediate word recall [7]: No significant differences
- Numeric Working Memory Speed [7]: significant decrements
- Numeric Working memory sensitivity index [7]: No significant differences
- Spatial Working Memory Sensitivity Index [7]: No significant differences
- Spatial Working Memory Speed [7]: No significant differences
- delay of effects on VAS [7]: up to two hours
- delay of effects on cognitive functioning [7]: up to one hour
- delayed word recall, analysis [7]: significant main effect of dose
- picture recognition sensitivity index [7]: did not show any significant differences
- picture recognition speed [7]: No significant differences
- word recognition speed [7]: did not show any significant differences
- word sensitivity index (word recognition) [7]: No significant differences
- subjects reporting cough ([8]; 1.2 mg, Group I, all six): 100%
- subjects with increased liver function tests (summary) ([8]; 3.6 mg for two weeks): three out of nine subjects
- subjects reporting cough ([8]; 3.6 mg, Group II, five out of six): 83.3%
- subjects reporting euphoric mood ([8]; Group 1, one subject): 16.7%
- most frequently reported TEAEs ([8]; Group I (1.2 mg dose level)): cough and somnolence
- TEAEs Probable/Possible, E = number of adverse events ([8]; Group I Active (1.2 mg)): 13
- TEAEs Probable/Possible, N = number of subjects ([8]; Group I Active (1.2 mg)): 6
- TEAEs Unlikely/Unrelated, E = number of adverse events ([8]; Group I Active (1.2 mg)): 7
- TEAEs Unlikely/Unrelated, N = number of subjects ([8]; Group I Active (1.2 mg)): 3
- Any related TEAE, n (x %) subjects ([8]; Group I, 1.2 mg): 6 (100%)
- Any related TEAE, number AEs ([8]; Group I, 1.2 mg): 13
- Subjects with at least one AE, n (x %) ([8]; Group I, 1.2 mg): 6 (100%)
- Subjects with at least one AE, number AEs ([8]; Group I, 1.2 mg): 20
- events reported among subjects treated with active drug ([8]; Group I): 27 events
- events considered probably or possibly related to study drug ([8]; Group I): 13 events
- most frequently reported TEAEs ([8]; Group II (3.6 mg dose level)): cough, headache, and euphoric mood
- TEAEs Probable/Possible, E = number of adverse events ([8]; Group II Active (3.6 mg)): 17
- TEAEs Probable/Possible, N = number of subjects ([8]; Group II Active (3.6 mg)): 6
- TEAEs Unlikely/Unrelated, E = number of adverse events ([8]; Group II Active (3.6 mg)): 9
- TEAEs Unlikely/Unrelated, N = number of subjects ([8]; Group II Active (3.6 mg)): 3
- Any related TEAE, n (x %) subjects ([8]; Group II, 3.6 mg): 6 (100%)
- Any related TEAE, number AEs ([8]; Group II, 3.6 mg): 17
- Subjects with at least one AE, n (x %) ([8]; Group II, 3.6 mg): 6 (100%)
- Subjects with at least one AE, number AEs ([8]; Group II, 3.6 mg): 27
- subjects with liver enzymes elevated at follow-up ([8]; Group II, 3.6 mg): three subjects
- events reported among subjects treated with active drug ([8]; Group II): 19 events
- events considered probably or possibly related to study drug ([8]; Group II): 17 events
- subjects reporting euphoric mood ([8]; Group III (so in the source), three subjects): 50.0%
- duration of intermittent cough ([8]; active treatment, Group I): between four and nine days
- duration of intermittent cough ([8]; active treatment, Group II): between six and 18 days
- subjects reporting somnolence ([8]; active treatment, two subjects in each group): 33.3%
- overall safety and tolerability ([8]; single and multiple dosing with 1.2 and 3.6 mg, pulmonary inhaled): safe and well-tolerated
- vital signs, ECG, physical examination, telemetric monitoring and pulmonary function tests ([8]; summary): No dose-related trends or clinically significant changes
- deaths or serious adverse events ([8]; whole study): No deaths or serious adverse events
- intensity of TEAEs ([8]; whole study): mild intensity
- serious or severe AEs, AEs leading to premature termination ([8]; whole study): no serious or severe AEs
